From patent US5235036A, “CRF analogs” (The Salk Institute for Biological Studies, priority 1991, dated 1993)
“Also recorded” adds a separate entry of the source. Read-outs that look alike come from different tables or passages of the source. Where a SMILES comes first, the peptide text is derived from it. Where no end group is shown, it is not given here. [ ]: non-standard residue; d: D form.

How the values were obtained:
[1] = tested on: secretion of ACTH and β-END-LI; assay: in vivo testing: stimulation of the secretion of ACTH and β-END-LI; settings: test system not stated in the example
Procedure: (§1) The synthetic peptides [Ala^20 ]-oCRF and [Ala^39 ]-oCRF are examined for their effects on the secretion of ACTH and β-endorphin in vitro and also in vivo. The potency of synthetic oCRF analogs to stimulate the secretion of ACTH and β-endorphin by cultured rat pituitary cells is measured using the procedure as generally set forth in Endocrinology, 91, 562 (1972) and compared against synthetic oCRF. [Ala^20 ]-oCRF is considered to be about 2 to 4 times as potent as the native hormone. […] In vivo testing which can be carried out using the general procedure set forth in C. Rivier et al., Science.

[2] = lowering of blood pressure when injected peripherally; assay type: in vivo; settings: e.g. intravenously
[3] = background statement; mammals; cited from earlier work
[4] = tested on: ACTH and β-endorphin-like activities (β-END-LI); settings: in vitro and in vivo; background statement; cited from earlier work
[5] = tested on: cultured rat pituitary cells; assay: secretion of ACTH and β-endorphin by cultured rat pituitary cells, compared against synthetic oCRF; assay type: cell-based
Procedure: as §1

[6] = tested on: gastric acid production; settings: background statement; cited from earlier work

| Molecule | biopotency / stimulation of the secretion of ACTH and β-END-LI [1] | lowering of blood pressure [2] | lowering of blood pressure [3] | stimulation of ACTH and β-endorphin secretion / β-END-LI [4] | also measured |
| --- | --- | --- | --- | --- | --- |
| CC[C@H](C)[C@H](NC(=O)[C@@H](NC(=O)[C@H](CCC(=O)O)NC(=O)[C@H](CCSC)NC(=O)[C@H](CC(C)C)NC(=O)[C@H](CCCCN)NC(=O)[C@H](CCCNC(=N)N)NC(=O)[C@H](CC(N)=O)NC(=O)[C@H](CO)NC(=O)[C@H](Cc1c[nH]cn1)NC(=O)[C@H](C)NC(=O)[C@H](CCC(N)=O)NC(=O)[C@H](CCC(N)=O)NC(=O)[C@H](C)NC(=O)[C@H](CC(C)C)NC(=O)[C@H](CCC(N)=O)NC(=O)[C@H](CCC(=O)O)NC(=O)[C@H](C)NC(=O)[C@H](CCCNC(=N)N)NC(=O)[C@H](C)NC(=O)[C@H](CCSC)NC(=O)[C@H](C)NC(=O)[C@H](CC(C)C)NC(=O)[C@@H](NC(=O)[C@H](CCC(=O)O)NC(=O)[C@H](CCCNC(=N)N)NC(=O)[C@H](CC(C)C)NC(=O)[C@H](CC(C)C)NC(=O)[C@H](Cc1c[nH]cn1)NC(=O)[C@@H](Cc1ccccc1)NC(=O)[C@@H](NC(=O)[C@H](CC(C)C)NC(=O)[C@H](CC(=O)O)NC(=O)[C@H](CC(C)C)NC(=O)[C@H](CO)NC(=O)[C@@H](NC(=O)[C@@H]1CCCN1C(=O)[C@@H]1CCCN1C(=O)[C@@H](N)CCC(=O)O)[C@@H](C)CC)[C@@H](C)O)C(C)C)[C@@H](C)CC)C(N)=O [[D-Phe^12, Ala^20]-rCRF(3-41)] (H-EPPISLDLT[dF]HLLREVLAMARAEQLAQQAHSNRKLMEII-NH2) | biopotent | causes significant lowering of blood pressure |  |  |  |
| SEEPPISLDLTFHLLREVLAMARAEQLAQQAHSNRKLMEII [[Ala^20]-rCRF] | biopotent and stimulates the secretion of ACTH and β-END-LI | causes significant lowering of blood pressure |  |  |  |
| SEEPPISLDLTFHLLREVLEMARAEQLAQQAHSNRKLMAII [[Ala^39 -rCRF] | biopotent, stimulates the secretion of ACTH and β-END-LI | causes significant lowering of blood pressure |  |  |  |
| SQEPPISLDLTFHLLREMLEMAKAEQEAEQAALNRLLLEEA [AHC] |  |  | substantially lower blood pressure | stimulate ACTH and β-endorphin-like activities (β-END-LI) in vitro and in vivo |  |
| SQEPPISLDLTFHLLREVLAMTKADQLAQQAHSNRKLLAIA [[Ala^20,29]-oCRF] | biopotent | lowers blood pressure |  |  |  |
| SQEPPISLDLTFHLLREVLAMTKADQLAQQAHSNRKLLDIA [[Ala^20]-oCRF] |  | a significant lowering of blood pressure |  |  |  |
| SQEPPISLDLTFHLLREVLEMTKADQLAQQAHSNRKLLAIA [[Ala^39]-oCRF] |  | a significant lowering of blood pressure |  |  | increase in biopotency in vitro over the native hormone [5]: ~85% |
| Ser-Gln-Glu-Pro-Pro-Ile-Ser-Leu-Asp-Leu-Thr-Phe-His-Leu-Leu-Arg-Glu-Val-Leu-Glu-Met-Thr-Lys-Ala-Asp-Gln-Leu-Ala-Gln-Gln-Ala-His-Ser-Asn-Arg Lys-Leu-Leu-Asp-Ile-Ala (SQEPPISLDLTFHLLREVLEMTKADQLAQQAHSNRKLLDIA) [oCRF] |  |  | lowers blood pressure in mammals; also recorded: substantially lower blood pressure | stimulates the secretion of ACTH and β-endorphin; also recorded: stimulate ACTH and β-endorphin-like activities (β-END-LI) in vitro and in vivo | gastric acid production [6]: inhibits gastric acid production |
| Ser-Glu-Glu-Pro-Pro-Ile-Ser-Leu-Asp-Leu-Thr-Phe-His-Leu-Leu-Arg-Glu-Val-Leu-Glu-Met-Ala-Arg-Ala-Glu-Gln-Leu-Ala-Gln-Gln-Ala-His-Ser-Asn-Arg -Lys-Leu-Met-Glu-Ile-Ile (SEEPPISLDLTFHLLREVLEMARAEQLAQQAHSNRKLMEII) [rCRF] |  |  | substantially lower blood pressure | stimulate ACTH and β-endorphin-like activities (β-END-LI) in vitro and in vivo |  |
